This note sets out measurements from patent US20110245091A1, “REACTION PROGRESS ASSAY FOR SCREENING BIOLOGICAL ACTIVITY OF ENZYMES” (priority 2010, published 2011).

A word on the Ki: it is a dissociation constant, usually derived from enzyme kinetics or from competition with a known ligand.

The assay has as its target T1, HIV-I reverse transcriptase (Human immunodeficiency virus type 1 group M subtype B, UniProt P04585).
T1 construct: HIV-I RNA-dependent DNA polymerase (reverse transcriptase); purchased Worthington LS05006
Nature of the assay: Reaction progress luminescence assay of cDNA synthesis by HIV-I reverse transcriptase (luciferase detection of dATP). The assay is classed as biochemical. The method, then:
The reaction was set by adding: 16 µL of RNAse-free water; 2 µL of 10× reaction buffer (400 mM Tris-HCl, 60 mM MgCl2, 100 mM Dithiothreitol, 20 mM spermidine, pH 7.9 @ 25° C.); 2 µL of template, polyuridylic acid at 1 µg/µL (Midland Certified Reagent Company, Cat. No. P-3004); 2 µL of primer poly(A)18 at 0.5 µg/µL (Polydeoxyadenylate, 18 base long purchased from Integrated DNA technologies); 20 µM of dATP; 3 U of HIV-I (Worthington, Cat. No. LS05006); 3 µL of ATP detection solution prepared by diluting luciferase (EC 1.13.12.7) at 3 µg/mL in 0.1M Tris-acetate pH 7.7, 2 mM EDTA, 10 mM magnesium acetate, 0.1% BSA, 1 mM dithiothreitol, 0.4 mg/mL PVP, and 0.4 mM D-luciferin. A 5 µL of reaction solution has been added to a well of 384-well plate and the luminescence intensity vs. time was recorded on Orion II microplate luminometer at 25° C. (Berthold detection Systems (Pforzheim, Germany)). A first derivative, ∂l(t)l∂t, for the luminescence intensity has been calculated. The derivative was calculated by selecting a group of three or more consecutive measurements of the luminescence intensity and calculating by a least square method the “instant” slope of the luminescent intensity which said slope represents the first derivative of the luminescence at the time when the respective measurements were made. […]

With `C[C@H](Cn1cnc2c(N)ncnc21)OCP(=O)(O)O` [MT-4S], the “mechanism of inhibition (crossing of trend lines)” value (MT-4S at 1.2 nM and 3.7 nM) is on record as “non-competitive”. For the same compound, the Ki (inhibitor at 0, 1.2 and 3.7 nM, 20 μM dATP, 25° C., read-out: inhibition constant Ki) was 0.9 ± 0.15 nM.
